Assay results from patent EP2518500A1, “In vitro method for determining developmental toxicity of a compound” (priority 2011, dated 2012).
Like-named read-outs stand apart in the source and are kept apart here.

Columns and labels:
[1] = test system: vmhc; experiment: Microarray gene expression in zebrafish embryos exposed to compound, vmhc; conditions: 24 hpf; embryos exposed at BMCGMS20 (PAA equimolar to MAA and EAA); relative to DMSO-exposed control; negative = downregulation, positive = upregulation
[2] = test system: hspb12; experiment: Microarray gene expression in zebrafish embryos exposed to compound, hspb12; conditions: 24 hpf; embryos exposed at BMCGMS20 (PAA equimolar to MAA and EAA); relative to DMSO-exposed control; negative = downregulation, positive = upregulation
[3] = test system: cyp26a1; experiment: Microarray gene expression in zebrafish embryos exposed to compound, cyp26a1; conditions: 24 hpf; embryos exposed at BMCGMS20 (PAA equimolar to MAA and EAA); relative to DMSO-exposed control; negative = downregulation, positive = upregulation
[4] = test system: si:rp71-39b20.7; experiment: Microarray gene expression in zebrafish embryos exposed to compound, si:rp71-39b20.7; conditions: 24 hpf; embryos exposed at BMCGMS20 (PAA equimolar to MAA and EAA); relative to DMSO-exposed control; negative = downregulation, positive = upregulation
[5] = test system: zebrafish embryos; experiment: Method of the invention: developmental toxicity from expression of the 4 genes in exposed zebrafish embryos; conditions: for fold ratio (FR) (either up- or downregulated): all 4 genes (cyp26a1, si:rp71-39b20.7, vmhc, hspb12), 24 hpf microarray, compound versus DMSO control
[6] = test system: cyp26a1; conditions: zebrafish (Danio rerio), in vivo, 24 hpf
[7] = test system: si:rp71-39b20.7; conditions: zebrafish (Danio rerio), in vivo, 24 hpf
[8] = test system: vmhc; conditions: zebrafish (Danio rerio), in vivo, 24 hpf
[9] = test system: hspb12; conditions: zebrafish (Danio rerio), in vivo, 24 hpf
[10] = test system: zebrafish embryos; conditions: zebrafish (Danio rerio), in vivo, 24 hpf
[11] = test system: zebrafish embryos; conditions: concentration range, three independent runs, evaluated at 72 hpf; previous study [11]; cited from earlier work

Row | Structure (SMILES) | Fold ratio (FR) vmhc [1] | Fold ratio (FR) hspb12 [2] | Fold ratio (FR) cyp26a1 [3] | Fold ratio (FR) si:rp71-39b20.7 [4] | fold ratio (FR) (either up- or downregulated) [5] | Fold ratio (FR) cyp26a1 [6] | Fold ratio (FR) si:rp71-39b20.7 [7] | Fold ratio (FR) vmhc [8] | Fold ratio (FR) hspb12 [9] | fold ratio (FR) (either up- or downregulated) [10] | effects in the ZET (GMS) [11] | developmental toxicity classification in the method according to the invention ([5]; gene expression in zebrafish embryos, 24 hours after fertilization)
1 | CC(C1CC1)C(O)(Cn1cncn1)c1ccc(Cl)cc1 (stereo not drawn) [CYP, cyproconazole] | -1.759 | -1.531 | 3.745 | -1.544 | > 1.5 |  |  |  |  |  |  | 
2 | CCOCC(=O)O [EAA, ethoxyacetic acid] | -4.629 | -16.913 | 2.648 | -2.183 | > 1.5 |  |  |  |  |  |  | 
3 | C[Si](Cn1cncn1)(c1ccc(F)cc1)c1ccc(F)cc1 [FLU, flusilazole] | -1.784 | -2.182 | 3.452 | -1.514 | > 1.5 |  |  |  |  |  |  | 
4 | COCC(=O)O [MAA, methoxyacetic acid] |  |  |  |  |  | 1.722 | -1.996 | -2.946 | -3.449 | > 1.5 |  | 
5 | O=C(O)COc1ccccc1 [PAA, phenoxyacetic acid] | -1.102 | -1.135 | -1.009 | -1.098 | < 1.2 |  |  |  |  |  | no effects | non-developmentally toxic
